Broadly, the EC50 is the midpoint of the concentration-response curve. A word on the Ki: it is the equilibrium dissociation constant of an inhibitor or competing ligand from its target.

Where two headings read alike, the source gives them in different places.

Data set [1] has as its target neuronal nicotinic acetylcholine receptors (nAChR). Conditions: cited from earlier work.
Data set [2] shares this target. The settings on record: read-out: Ki for nAChr; cited from earlier work.
For data set [3] the following is noted: humans, cited from earlier work.
The next data set concerns Swiss Webster mice. Briefly: Toxicity of reaction product to mice. In kind it is in vivo, mouse. As for the experimental part:
Short-term experiments were performed by administrating 35, 70 140 ng of […] to male Swiss Webster mice (about 20 g, n=4 for each group) daily. Their viability and behavior was recorded.
Long-term experiments were performed by administrating 200 ng to the same species of mice (n=7) every other day for 5 weeks. At the end of the 5th week, the mice were euthanized and autopsied.
The clinical utility of an enzyme also relates to the toxicity and addictive properties of the reaction products. […] However, it has been reported as a likely precursor to 4-(methylnitrosamino)-1-(3-pyridyl)-1-butanone (NNK), a potential carcinogen.^20 To investigate any harmful effects of 4, toxicology studies were performed in which mice were administered pseudooxynicotine (4).
Mice received 35, 70 or 140 ng of compound 4 daily, which is representative of the typical range of nicotine amounts (4-72 ng/mL) found in smokers,^19 if fully converted to compound 4. […] In addition, the long-term exposure (5-weeks) of 4 was evaluated where the mice were dosing every other day with 200 ng compound 4 per dose.

For the compound `CN1CCC[C@H]1c1cccnc1` [nicotine, (S)-(−)-nicotine], the EC50 in data set [1] (read-out: EC50 for activation of nAChr, activation) is 60 nM; in data set [1] (read-out: EC50 for desensitization of nAChr, desensitization), 2.8 nM. The inhibition constant Ki in data set [2] is 1 to 12 nM. In addition, the terminal half-life in data set [3] (regular smoking) is ≥ 20 h. Further, in data set [3] (tobacco use), the elimination half-life is 2 to 3 h.

On to `CNCCCC(=O)c1cccnc1` [compound 4, 4-(methylamino)-1-(pyridine-3-yl)butan-1-one], for which, in the data set on Swiss Webster mice (mice, 200 ng every other day, 5 weeks), the “health and autopsy, long-term exposure” value is “remained healthy and autopsies did not reveal any sign of neoplasia or organ damage”. In addition, in the data set with Swiss Webster mice (mice, 35, 70 or 140 ng daily, five days), the “health and behavior, short-term” value is listed as “none of the mice exhibited any evidence of health or behavioral problems”.

Values taken from US20190015484A1, “NICOTINE-DEGRADING ENZYMES FOR TREATING NICOTINE ADDICTION AND NICOTINE POISONING” (priority 2015, published 2019).
